According to US11965204B2, “Detection of analytes by enzyme-mediated strand displacement reactions” (priority 2020, dated 2024):

What was measured:
MphR = experiment: MphR-based biosensor, derepression by ligand; format: biochemical, E. coli; conditions: fixed concentration of MphR; erythromycin 0 nM-2.5 uM; FIG. 10
From the text: (§1) Here we present two biosensors built with the described mechanism above. As shown in FIGS. 7A-7B, the aTF TetR (SEQ ID NO: 21) can be used to build a tetracycline biosensor using its corresponding operator sequence in the DNA template and partially in the IP (SEQ ID NO: 19). Increasing concentrations of TetR decrease the rate of the reaction as there is less DNA template accessible to HgaI. When the system is repressed by a given concentration of TetR, it can be derepressed by the ligand tetracycline. The rate of the reaction is proportional to the concentration of tetracycline within a certain concentration range (FIG. 8). Similarly, a circuit using the aTF MphR (SEQ ID NO: 22) with its corresponding operator sequence (SEQ ID NOs: 17 and 18) in the DNA template and partially in the IP (SEQ ID NO: 20) can be used to sense macrolides.
(§2) HgaI/Toehold-Mediated Strand Displacement Reactions.

[1] = test system: DNA template (S) with MphR operator sequence; experiment: Titration of MphR in the HgaI/toehold-mediated strand displacement reaction; format: biochemical; conditions: absence of erythromycin; MphR 0 nM-3 uM; FIG. 9B
From the text: FIG. 9A illustrates the components of the biosensor, indicating the DNA template (S) and Invading Probe (IP) sequences and modifications.
as §1, §2

Molecule | response of the MphR-repressed reaction to the ligand (MphR) | effect of increasing aTF concentration on reaction rate [1]
CC[C@H]1OC(=O)[C@H](C)[C@@H](O[C@H]2C[C@@](C)(OC)[C@@H](O)[C@H](C)O2)[C@H](C)[C@@H](O[C@@H]2O[C@H](C)C[C@H](N(C)C)[C@H]2O)[C@](C)(O)C[C@@H](C)C(=O)[C@H](C)[C@@H](O)[C@]1(C)O [erythromycin] | proportionally higher reaction rates | –
MphR: aTF used to sense macrolides; SEQ ID NO: 22 (protein, listed as Escherichia coli) MPRPKLKSDDEVLEAATVVLKRCGPIEFTLSGVAKEVGLSRAALIQRFTNRDTLLVRMMERGVEQVRHYLNAIPIGAGPQGLWEFLQVLVRSMNTRNDFSVNYLISWYELQVPELRTLAIQRNRAVVEGIRKRLPPGAPAAAELLLHSVIAGATMQWAVDPDGELADHVLAQIAAILCLMFPEHDDFQLLQAHA | – | decrease of the reaction rate
